Measured values as given in publication PMC11237694, “Novel pentafluorosulfanyl-containing triclocarban analogs selectively kill Gram-positive bacteria” (Microbiology Spectrum, 2024).
“Also recorded” adds a separate entry of the source. Read-outs that look alike come from different tables or passages of the source.

Legend:
[1] = system: HEL cells; assay: Eukaryotic cell toxicity, microscopy (MCC); assay type: cell-based, Human; settings: minimum concentration causing microscopically detectable alteration of cell morphology; 4 days
Experimental: (§1) Five eukaryotic cell lines were used to determine the cytotoxicity of the compounds: human embryonic lung (HEL) fibroblast cells, human cervixcarinoma-derived HeLa cells, human T-cell leukemia-derived MT4 cells, MDCK cells, and African Green monkey kidney-derived VERO cells. Semi-confluent cell cultures in 96-well plates were exposed to serial dilutions of the compounds or to medium (= no compound control), then incubated at 37°C. Four days later, the cells were inspected by microscopy to determine the MCC, that is, compound concentration that causes a microscopically detectable alteration of normal cell morphology. Next, the MTS cell viability reagent (CellTiter 96 AQueous MTS Reagent from Promega) was added. After 4 hours of incubation at 37°C, OD at 490 nm was recorded in a microplate reader.

[2] = system: HeLa cells; assay: Eukaryotic cell toxicity, microscopy (MCC); assay type: cell-based, Human; settings: minimum concentration causing microscopically detectable alteration of cell morphology; 4 days
Experimental: as §1

[3] = Eukaryotic cell toxicity, MTS assay (CC50); assay type: cell-based, canine; settings: dog, MDCK cells, MTS assay, 4 days; mean of 2 or 3 determinations; read-out: MDCK (CC50) in vitro cytotoxicity
Experimental: as §1

[4] = system: MDCK cells; assay: Eukaryotic cell toxicity, MTS assay (CC50); assay type: cell-based, canine; settings: for cytotoxicity level lower than that of EPB-34: MDCK cells; for CC50: MTS assay, 4 days, mean of 2 or 3 determinations, read-out: MDCK (CC50) in vitro cytotoxicity
Experimental: as §1

[5] = system: P. aeruginosa; assay: Membrane permeability, propidium iodide staining; assay type: cell-based, Pseudomonas aeruginosa; settings: Gram-negative P. aeruginosa; MIC concentration, 1 hour
Experimental: (§2) For assessing membrane permeability, PI (Invitrogen, Eugene, Oregon, USA) served as the fluorescent reporter dye. Increased PI fluorescence readings are indicative of heightened membrane disruption and permeability, as PI can penetrate cells, bind to DNA, and remain within the cells ([29], [30]). Bacteria were cultured in 3 mL of Mueller-Hinton broth (MHB) and incubated at 37°C for approximately 3 hours in a shaker incubator (150 rpm) until reaching an OD600 (optical density) of 0.08. […] All treated and control groups were incubated at 37°C for 1 hour in a shaker incubator (150 rpm). Ciprofloxacin and gentamycin were employed as internal controls, as they are known not to target the bacterial cell membrane in the initial steps. After incubation, the samples were centrifuged, washed with PBS (10,000 × g for 2 minutes), and bacteria were stained with 0.08 mM PI for 5 minutes at 21°C in the dark. Subsequently, 10 µL of samples were transferred onto slides and examined under a fluorescence microscope (Zeiss Axio Imager Z1) using the same exposure time (640 ms red and 1 s green). Densitometry analysis was conducted using Fiji software (ImageJ).

[6] = system: MRSA; assay: Membrane permeability, propidium iodide staining; assay type: cell-based, methicillin-resistant S. aureus; settings: Gram-positive MRSA; MIC concentration, 1 hour
Experimental: as §2

[7] = system: MRSA strain MW2; assay: Intravenous MRSA infection model in mice, CFU enumeration in organs; assay type: in vivo; settings: single i.p. injection 100 µl of 5 mM, 1 hour before or after i.v. infection with 5 × 10^7 CFU MW2; 24 hours
Experimental: Mice were infected systemically with the community-associated MRSA strain MW2 at an infectious dose of 5 × 10^7 colony-forming units (CFUs) as described ([26]). Treatment groups were injected intraperitoneally with the compound of interest 1 hour before or after infection, with a saline-injected control group. After 24 hours of infection, mice were sacrificed, and blood, peritoneal fluid, spleen, liver, kidney (left), heart, and lungs were harvested for CFU enumeration to determine the bacterial burden in these organs. […] Although disappointing, the lack of promising results in the single-dose treatments may have a variety of reasons, including rapid metabolism and excretion of the compounds by the liver, or the acknowledged intracellular aspect of S. aureus in its infectious cycle ([27]). […] Additionally, investigating the possibility of topical application for these components presents another viable option.
Animal experiments were performed with 6- to 10-week/old adult male mice. Mice were kept in a pathogen-free facility under standardized conditions: temperature of 21–22°C, illumination of 12-hour light–12-hour dark, and access to tap water and food. Experimental animal protocols were approved by the University of Calgary Animal Care Committee and followed the Canadian Council for Animal Care Guidelines.
MW2 Staphylococcus aureus was grown on brain heart infusion (BHI) agar plates (BD biosciences). A single colony was grown overnight in BHI medium (BD biosciences) at 37°C while shaking. Subcultures of […] of the overnight (ON) culture were grown in 3 mL of the same culture medium for 2 hours at 37°C while shaking to reach the exponential growth phase. Bacteria were brought to a concentration of OD660 1.0 in saline. […]
For assessing bacterial by CFU enumeration, the mice were anesthetized with isoflurane (Fresenius Kabi) and washed with 70% ethanol to collect blood and sacrificed to further collect liver, spleen, kidney (left), heart, and lungs. […] Cultures were counted, and CFUs were calculated taking the weight of the organ into account.

SMILES	HEL (MCC) in vitro cytotoxicity [1] [µM]	HeLa (MCC) in vitro cytotoxicity [2] [µM]	CC50 at 4 days [3] [µM]	cytotoxicity level lower than that of EPB-34 [4] [logs]	CC50 [4] [µM]	effect on cell membrane (PI staining) [5]	cell membrane disruption (PI staining) [6]	bacterial burden (CFU) in blood, spleen, liver, kidney, heart, lungs [7]	CC50 ([4]; listed as EBP-61) [µM]
O=C(Nc1ccc(S(F)(F)(F)(F)F)cc1)Nc1ccc(Cl)c(Cl)c1 [EBP-59]	>4	4	≥ 100	2	> 100	no effect	effective at cell membrane disruption	failed to reduce bacterial counts; also recorded: not significant	–
O=C(Nc1ccc(Cl)cc1)Nc1cccc(S(F)(F)(F)(F)F)c1 [EBP-62, 1-(4-chlorophenyl)-3-(3-(pentafluoro-λ^6-sulfanyl)phenyl)urea]	20	>4	100	–	–	–	–	failed to reduce bacterial counts; also recorded: not significant	–
O=C(Nc1ccc(Cl)cc1)Nc1ccc(S(F)(F)(F)(F)F)cc1 [EPB-61, 1-(4-Chlorophenyl)-3-(4-(pentafluoro-λ^6-sulfanyl)phenyl)urea]	>4	4	≥ 100	2	–	no effect	effective at cell membrane disruption	failed to reduce bacterial counts; also recorded: not significant	> 100
